From US7993916B2, “Methods for increasing definitive endoderm production” (Viacyte, Inc., priority 2007, dated 2011)

Tested on: hESCs (CyT203 p36)
Conditions: EDTA 0.075 mM, PBS−/− wash, about 18 hr, activin A 100 ng/ml and Wnt3a 25 ng/ml, RPMI without FBS
Protocol: Cell cultures and culture conditions were substantially similar to that described above and in D'Amour et al. 2005 and 2006 supra. […] Samples of undifferentiated hESCs were taken prior to the start of the differentiation procedure. Plates were briefly washed with 2 ml of PBS either containing Ca^2+ or Mg^2+ or without Ca^2+ and Mg^2+ (PBS^−/−). In addition, the one plate which was washed with PBS^−/− also received ethylenediamine tetraacetic acid (EDTA) at 0.075 mM to reduce the concentration of Ca^2+ ions present in the media.

O=C(O)CN(CCN(CC(=O)O)CC(=O)O)CC(=O)O [EDTA, ethylenediamine tetraacetic acid]
increase in expression for the DE marker (CER): three-fold
increase in gene expression for mesendoderm markers (BRACH, NODAL): two-fold
